Structures can show the parent of a compound that is named as a salt.
Columns and labels:
[1] = target: T1, isolated recombinant JAK1 kinase domain (Homo sapiens, UniProt P23458); assay: JAK enzyme assay (Caliper LabChip), JAK1; assay type: biochemical; settings: 1.5 nM JAK1, ATP 25 μM, 22° C., 30 minutes; Morrison tight binding model
T1 construct: isolated recombinant JAK1 and JAK2 kinase domain
Experimental: (§1) The activity of the isolated recombinant JAK1 and JAK2 kinase domain was measured by monitoring phosphorylation of a peptide derived from JAK3 (Val-Ala-Leu-Val-Asp-Gly-Tyr-Phe-Arg-Leu-Thr-Thr, fluorescently labeled on the N-terminus with 5-carboxyfluorescein) using the Caliper LabChip® technology (Caliper Life Sciences, Hopkinton, Mass.). To determine inhibition constants (Ki), compounds were diluted serially in DMSO and added to 50 μL kinase reactions containing purified enzyme (1.5 nM JAK1, or 0.2 nM JAK2), 100 mM HEPES buffer (pH 7.2), 0.015% Brij-35, 1.5 μM peptide substrate, ATP (25 μM), 10 mM MgCl2, 4 mM DTT at a final DMSO concentration of 2%. Reactions were incubated at 22° C. in 384-well polypropylene microtiter plates for 30 minutes and then stopped by addition of 25 μL of an EDTA containing solution (100 mM HEPES buffer (pH 7.2), 0.015% Brij-35, 150 mM EDTA), resulting in a final EDTA concentration of 50 mM. After termination of the kinase reaction, the proportion of phosphorylated product was determined as a fraction of total peptide substrate using the Caliper LabChip® 3000 according to the manufacturer's specifications. Ki values were then determined using the Morrison tight binding model (Morrison, J. F., Biochim. Biophys. Acta. 185:269-296 (1969); William, J. W. and Morrison, J. F., Meth. Enzymol., 63:437-467 (1979)) modified for ATP-competitive inhibition [Ki ═Ki,app/(1+[ATP]/Km,app)].

[2] = target: T2, isolated recombinant JAK2 kinase domain (Homo sapiens, UniProt O60674); assay: JAK enzyme assay (Caliper LabChip), JAK2; assay type: biochemical; settings: 0.2 nM JAK2, ATP 25 μM, 22° C., 30 minutes; Morrison tight binding model
T2 construct: isolated recombinant JAK1 and JAK2 kinase domain
Experimental: as §1

T1 sequence (P23458 875-1153 limits assumed): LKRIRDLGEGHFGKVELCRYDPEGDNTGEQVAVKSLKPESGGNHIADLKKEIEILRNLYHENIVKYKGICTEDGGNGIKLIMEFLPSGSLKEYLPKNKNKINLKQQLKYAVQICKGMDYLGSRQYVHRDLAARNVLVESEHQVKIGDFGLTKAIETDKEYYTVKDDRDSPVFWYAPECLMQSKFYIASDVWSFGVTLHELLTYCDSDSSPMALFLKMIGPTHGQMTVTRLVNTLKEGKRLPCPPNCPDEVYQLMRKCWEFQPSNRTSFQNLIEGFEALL
T2 sequence (O60674 849-1124 limits assumed): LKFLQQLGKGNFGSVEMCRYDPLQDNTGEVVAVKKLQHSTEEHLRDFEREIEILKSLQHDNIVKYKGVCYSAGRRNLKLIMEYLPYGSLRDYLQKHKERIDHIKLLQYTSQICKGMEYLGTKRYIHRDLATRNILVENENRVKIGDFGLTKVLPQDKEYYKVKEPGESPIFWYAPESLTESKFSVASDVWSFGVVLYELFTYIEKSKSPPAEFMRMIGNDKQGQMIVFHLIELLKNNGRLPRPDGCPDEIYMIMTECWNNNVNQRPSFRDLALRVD

Ki [1] [nM]	Ki [2] [nM]	Compound
0.74	0.88	O=C(CCC(F)(F)F)N1CC=C(c2cccn3nc(Nc4cnn(CC(F)F)c4)nc23)CC1 [Compound 2-1, 1-[4-[2-[[1-(2,2-difluoroethyl)pyrazol-4-yl]amino]-[1,2,4]triazolo[1,5-a]pyridin-8-yl]-3,6-dihydro-2H-pyridin-1-yl]-4,4,4-trifluoro-butan-1-one]
0.56	0.22	CN(C)CCCn1cc(Nc2nc3c(N4CCC(CO)(c5ccc(Cl)cc5)CC4)cccn3n2)cn1 [Compound 1-8, [4-(4-chlorophneyl)-1-[2-[[1-[3-(dimethylamino)propyl]pyrazol-4-yl]amino]-[1,2,4]triazolo[1,5-a]pyridin-8-yl]-4-piperidyl]methanol; formic acid]
2.4	0.86	CNCCn1cc(Nc2nc3c(-c4ccc(OCc5ccc(OCCOC)nc5)cc4)cccn3n2)cn1 [Compound 3-2, 8-[4-[[6-(2-methoxyethoxy)-3-pyridyl]methoxy]phenyl]-N-[1-[2-(methylamino)ethyl]pyrazol-4-yl]-[1,2,4]triazolo[1,5-a]pyridin-2-amine]
0.21	0.045	OCC1(c2ccc(Cl)cc2)CCN(c2cccn3nc(Nc4cnn(CC5CCNCC5)c4)nc23)CC1 [Compound 1-1, [4-(4-chloropenyl)-1-[2-[[1-(4-piperidylmethyl)pyrazol-4-yl]amino]-[1,2,4]triazolo[1,5-a]pyridin-8-yl]-4-piperidyl]methanol; hydrochloride]
0.74	0.28	CNCCCn1cc(Nc2nc3c(-c4ccc(OCc5ccc(OCCOC)nc5)cc4)cccn3n2)cn1 [Compound 3-5, 8-[4-[[6-(2-methoxyethoxy)-3-pyridyl]methoxy]phenyl]-N-[1-[3-(methylamino)propyl]pyrazol-4-yl]-[1,2,4]triazolo[1,5-a]pyridin-2-amine]
0.87	0.71	O=C(CCC(F)(F)F)N1CC=C(c2cccn3nc(Nc4cnn(CCO)c4)nc23)CC1 [Compound 2-2, 4,4,4-trifluoro-1-[4-[2-[[1-(2-hydroxyethyl)pyrazol-4-yl]amino]-[1,2,4]triazolo[1,5-a]pyridin-8-yl]-3,6-dihydro-2H-pyridin-1-yl]butan-1-one]
0.63	0.38	OCC1(c2ccc(Cl)cc2)CCN(c2cccn3nc(Nc4cnn(C5CCN(Cc6ccccc6)CC5)c4)nc23)CC1 [Compound 1-3, [1-[2-[[1-(1-benzyl-4-piperidyl)pyrazol-4-yl]amino]-[1,2,4]triazolo[1,5-a]pyridin-8-yl]-4-(4-chlorophenyl)-4-piperidyl]methanol; formic acid]
0.27	0.11	N#CCCN1CCC(n2cc(Nc3nc4c(N5CCC(CO)(c6ccc(Cl)cc6)CC5)cccn4n3)cn2)CC1 [Compound 1-4, 3-[4-[4-[[8-[4-(4-chlorophenyl)-4-(hydroxymethyl)-1-piperidyl]-[1,2,4]triazolo[1,5-a]pyridin-2-yl]amino]pyrazol-1-yl]-1-piperidyl]propanenitrile]
0.33	0.16	OCC1(c2ccc(Cl)cc2)CCN(c2cccn3nc(Nc4cnn(CCCN5CCOCC5)c4)nc23)CC1 [Compound 1-10, [4-(4-chlorophenyl)-1-[2-[[1-(3-morpholinopropyl)pyrazol-4-yl]amino]-[1,2,4]triazolo[1,5-a]pyridin-8-yl]-4-piperidyl]methanol; formic acid]

Continued, compound first:

Compound	Ki [1] [nM]	Ki [2] [nM]
CSc1ccc(C2(CC#N)CCN(c3cccn4nc(Nc5cnn(CCN(C)C)c5)nc34)CC2)cc1 [N, 2-[1-[2-[[1-[2-(dimethylamino)ethyl]pyrazol-4-yl]amino]-[1,2,4]triazolo[1,5-a]pyridin-8-yl]-4-(4-methylsulfanylphenyl)-4-piperidyl]acetonitrile]	5.1	1.2
Cn1cc(Nc2nc3c(N4CCC(CO)(c5ccc(Cl)cc5)CC4)cccn3n2)cn1 [A, [4-(4-chlorophenyl)-1-[2-[(1-methylpyrazol-4-yl)amino]-[1,2,4]triazolo[1,5-a]pyridin-8-yl]-4-piperidyl]methanol]	0.18	0.13
CSc1ccc(C2(CO)CCN(c3cccn4nc(Nc5cnn(CCN)c5)nc34)CC2)cc1 [R, [1-[2-[[1-(2-aminoethyl)pyrazol-4-yl]amino]-[1,2,4]triazolo[1,5-a]pyridin-8-yl]-4-(4-methylsulfanylphenyl)-4-piperidyl]methanol]	2.9	1.4
Cn1cc(Nc2nc3c(N4CCC(c5ccc(Cl)cc5)(C(O)CN5CCOCC5)CC4)cccn3n2)cn1 (racemic) [B, 1-[4-(4-chlorophenyl)-1-[2-[(1-methylpyrazol-4-yl)amino]-[1,2,4]triazolo[1,5-a]pyridin-8-yl]-4-piperidyl]-2-morpholino-ethanol]	0.97	0.58
COC(=O)CN1CCC2(CC1)CN(C(=O)N1CC=C(c3cccn4nc(Nc5cnn(C)c5)nc34)CC1)C2 [E, methyl 2-[2-[4-[2-[(1-methylpyrazol-4-yl)amino]-[1,2,4]triazolo[1,5-a]pyridin-8-yl]-3,6-dihydro-2H-pyridine-1-carbonyl]-2,7-diazaspiro[3.5]nonan-7-yl]acetate]	38	20
CSc1ccc(C2(CC#N)CCN(c3cccn4nc(Nc5cnn(CCNC6COC6)c5)nc34)CC2)cc1 [P, 2-[4-(4-methylsulfanylphenyl)-1-[2-[[1-[2-(oxetan-3-ylamino)ethyl]pyrazol-4-yl]amino]-[1,2,4]triazolo[1,5-a]pyridin-8-yl]-4-piperidyl]acetonitrile]	2.4	0.72
Cn1cc(Nc2nc3c(N4CCC(CCN5CCOCC5)(c5ccc(Cl)cc5)CC4)cccn3n2)cn1 [H, 8-[4-(4-chlorophenyl)-4-(2-morpholinoethyl)-1-piperidyl]-N-(1-methylpyrazol-4-yl)-[1,2,4]triazolo[1,5-a]pyridin-2-amine]	11	3.5
CN(C)CC(O)C1(c2ccc(Cl)cc2)CCN(c2cccn3nc(Nc4cnn(C)c4)nc23)CC1 (racemic) [C, 1-[4-(4-chlorophenyl)-1-[2-[(1-methylpyrazol-4-yl)amino]-[1,2,4]triazolo[1,5-a]pyridin-8-yl]-4-piperidyl]-2-(dimethylamino)ethanol]	1.8	2.9

— US20180327402A1, “TRIAZOLOPYRIDINE COMPOUNDS AND METHODS OF USE THEREOF” (Genentech, Inc., priority 2015, published 2018)
